Assay results from ChEMBL document CHEMBL1681743, “Novel second generation analogs of eribulin. Part III: Blood-brain barrier permeability and in vivo activity in a brain tumor model” (Bioorg Med Chem Lett, 2011).
pIC50: −log10 of the molar value. Where a name gives a salt, the structure may show the parent alone. Activity calls are given as the source filed them. The rule behind the calls is not given here.

Legend:
[1] = Antiproliferative activity against human doxorubicin-resistant MES-SA/Dx5-Rx1 cells; assay type: functional
SF-295 [2] = experiment: Antiproliferative activity against human SF295 cells; assay type: functional, cell-based
[3] = Antiproliferative activity against human MES-SA cells; assay type: functional, cell-based
U-251 [4] = experiment: Antiproliferative activity against human U251 cells; assay type: functional, cell-based
[5] = Half life in BALB/c mouse at 5 mg/kg, iv; assay type: ADME, organism-based; design: dose 5 mg/kg, route intravenous; details: in vivo
[6] = Tmax in BALB/c mouse at 5 mg/kg, iv; assay type: ADME, organism-based; design: dose 5 mg/kg, route intravenous; details: in vivo
[7] = Fraction unbound in BALB/c mouse brain at 5 mg/kg, iv; assay type: ADME, organism-based; design: dose 5 mg/kg, route intravenous
[8] = Brain penetration index, ratio of AUC (0 to infinity) in brain to plasma of BALB/c mouse at 5 mg/kg, iv; assay type: ADME, organism-based; design: dose 5 mg/kg, route intravenous
Mus musculus = experiment: AUC (0 to infinity) in BALB/c mouse at 5 mg/kg, iv; assay type: ADME, organism-based, Brain; design: time infinity, dose 5 mg/kg, route intravenous; details: in vivo
[9] = CSF penetration index, ratio of AUC (0 to infinity) in CSF to plasma of Sprague-Dawley rat at 4 mg/kg, iv; assay type: ADME, organism-based; design: dose 4 mg/kg, route intravenous
U-251 [10] = experiment: Antitumor activity against human U251 cells infected in athymic mouse assessed as increase in mouse survival at 1.1 to 2.5 mg/kg relative to control; assay type: functional; details: dose mg/kg 1.1-2.5
SF-295 [11] = experiment: Antitumor activity against human SF295 cells infected in athymic mouse assessed as increase in mouse survival at 0.36 to 0.80 mg/kg relative to control; assay type: functional, organism-based

CC(=O)O[C@H]1C(=O)[C@@]2(C)[C@H]([C@H](OC(=O)c3ccccc3)[C@]3(O)C[C@H](OC(=O)[C@H](O)[C@@H](NC(=O)c4ccccc4)c4ccccc4)C(C)=C1C3(C)C)[C@]1(OC(C)=O)CO[C@@H]1C[C@@H]2O [PACLITAXEL]
pIC50 [1]: < 6.00 | pIC50 (SF-295 [2]): 7.61

C=C1C[C@@H]2CC[C@@]34C[C@H]5O[C@H]6[C@@H](O3)[C@H]3O[C@H](CC[C@@H]3O[C@H]6[C@H]5O4)CC(=O)C[C@@H]3[C@@H](OC)[C@@H](CCN4CCC(C(F)(F)F)CC4)O[C@H]3C[C@H]3O[C@@H](CC[C@@H]1O2)C[C@@H](C)C3=C
pIC50 [3]: 9.96 | pIC50 [1]: 9.12 | pIC50 (U-251 [4]): 9.55

C=C1C[C@@H]2CC[C@@]34C[C@H]5O[C@H]6[C@@H](O3)[C@H]3O[C@H](CC[C@@H]3O[C@H]6[C@H]5O4)CC(=O)C[C@@H]3[C@@H](OC)[C@@H](C[C@@H](CN4CC(C)CC(C)C4)OC)O[C@H]3C[C@H]3O[C@@H](CC[C@@H]1O2)C[C@@H](C)C3=C (some centres not stated)
half-life [5]: 5.3 h | Tmax [6]: 4.8 min | fraction unbound [7]: 0.034 | Ratio AUC [8]: 1.7 mL/g | pIC50 [3]: 9.89 | pIC50 [1]: 8.62 | pIC50 (U-251 [4]): 8.59 | pIC50 (SF-295 [2]): 10.00 | AUC (Mus musculus): 3108 ng·h/g

C=C(C)CN(CC)CC[C@H]1O[C@H]2C[C@H]3O[C@@H](CC[C@@H]4O[C@@H](CC[C@@]56C[C@H]7O[C@H]8[C@@H](O5)[C@H]5O[C@H](CC[C@@H]5O[C@H]8[C@H]7O6)CC(=O)C[C@@H]2[C@H]1OC)CC4=C)C[C@@H](C)C3=C
pIC50 [3]: 9.64 | pIC50 [1]: 8.54 | pIC50 (U-251 [4]): 9.21

C=C1C[C@@H]2CC[C@@]34C[C@H]5O[C@H]6[C@@H](O3)[C@H]3O[C@H](CC[C@@H]3O[C@H]6[C@H]5O4)CC(=O)C[C@@H]3[C@@H](OC)[C@@H](CCCN4CCOCC4)O[C@H]3C[C@H]3O[C@@H](CC[C@@H]1O2)C[C@@H](C)C3=C
half-life [5]: 4.6 h | Tmax [6]: 15 min | fraction unbound [7]: 0.101 | Ratio AUC [8]: 7.7 mL/g | pIC50 [3]: 10.08 | pIC50 [1]: 8.89 | pIC50 (U-251 [4]): 8.84 | AUC (Mus musculus): 10200 ng·h/g

C=C1C[C@@H]2CC[C@@]34C[C@H]5O[C@H]6[C@@H](O3)[C@H]3O[C@H](CC[C@@H]3O[C@H]6[C@H]5O4)CC(=O)C[C@@H]3[C@@H](OC)[C@@H](C[C@@H](CN4CCC(C(F)(F)F)CC4)OC)O[C@H]3C[C@H]3O[C@@H](CC[C@@H]1O2)C[C@@H](C)C3=C
pIC50 [3]: 9.85 | pIC50 [1]: 9.08 | pIC50 (U-251 [4]): 9.48

C=C1C[C@@H]2CC[C@@]34C[C@H]5O[C@H]6[C@@H](O3)[C@H]3O[C@H](CC[C@@H]3O[C@H]6[C@H]5O4)CC(=O)C[C@@H]3[C@@H](OC)[C@@H](C[C@H](O)CN)O[C@H]3C[C@H]3O[C@@H](CC[C@@H]1O2)C[C@@H](C)C3=C [ERIBULIN MESYLATE]
half-life [5]: 46 h | Tmax [6]: 30 min | Ratio AUC [8]: 0.55 mL/g | pIC50 (U-251 [4]): 8.23 | pIC50 (SF-295 [2]): 7.56 | AUC (Mus musculus): 435 ng·h/g

C=C1C[C@@H]2CC[C@@]34C[C@H]5O[C@H]6[C@@H](O3)[C@H]3O[C@H](CC[C@@H]3O[C@H]6[C@H]5O4)CC(=O)C[C@@H]3[C@@H](OC)[C@@H](CCNCC(F)F)O[C@H]3C[C@H]3O[C@@H](CC[C@@H]1O2)C[C@@H](C)C3=C
pIC50 [3]: 8.72 | pIC50 [1]: 7.50 | pIC50 (U-251 [4]): 8.39

C=C1C[C@@H]2CC[C@@]34C[C@H]5O[C@H]6[C@@H](O3)[C@H]3O[C@H](CC[C@@H]3O[C@H]6[C@H]5O4)CC(=O)C[C@@H]3[C@@H](OC)[C@@H](CCN4CCOCC4)O[C@H]3C[C@H]3O[C@@H](CC[C@@H]1O2)C[C@@H](C)C3=C
pIC50 [3]: 9.92 | pIC50 [1]: 8.60 | pIC50 (U-251 [4]): 8.90

C=C1C[C@@H]2CC[C@@]34C[C@H]5O[C@H]6[C@@H](O3)[C@H]3O[C@H](CC[C@@H]3O[C@H]6[C@H]5O4)CC(=O)C[C@@H]3[C@@H](OC)[C@@H](C[C@@H](CN4CCOCC4)OC)O[C@H]3C[C@H]3O[C@@H](CC[C@@H]1O2)C[C@@H](C)C3=C
half-life [5]: 0.9 h | Tmax [6]: 4.8 min | fraction unbound [7]: 0.113 | Ratio AUC [8]: 1.4 mL/g | Kp [9]: 2.2 | pIC50 [3]: 9.80 | pIC50 [1]: 8.72 | pIC50 (U-251 [4]): 8.71 | AUC (Mus musculus): 1351 ng·h/g

C=C(C)CN1CCO[C@@H](C[C@H]2O[C@H]3C[C@H]4O[C@@H](CC[C@@H]5O[C@@H](CC[C@@]67C[C@H]8O[C@H]9[C@@H](O6)[C@H]6O[C@H](CC[C@@H]6O[C@H]9[C@H]8O7)CC(=O)C[C@@H]3[C@H]2OC)CC5=C)C[C@@H](C)C4=C)C1
half-life [5]: 1.2 h | Tmax [6]: 4.8 min | fraction unbound [7]: 0.024 | Ratio AUC [8]: 1.8 mL/g | Activity (U-251 [10]): >175% | Activity (SF-295 [11]): Active | pIC50 [3]: 9.60 | pIC50 [1]: 8.82 | pIC50 (U-251 [4]): 9.30 | pIC50 (SF-295 [2]): 9.59 | AUC (Mus musculus): 1362 ng·h/g

C=C1C[C@@H]2CC[C@@]34C[C@H]5O[C@H]6[C@@H](O3)[C@H]3O[C@H](CC[C@@H]3O[C@H]6[C@H]5O4)CC(=O)C[C@@H]3[C@@H](OC)[C@@H](C[C@@H](COC)OC)O[C@H]3C[C@H]3O[C@@H](CC[C@@H]1O2)C[C@@H](C)C3=C
pIC50 [3]: 9.62 | pIC50 (U-251 [4]): 9.13

C=C1C[C@@H]2CC[C@@]34C[C@H]5O[C@H]6[C@@H](O3)[C@H]3O[C@H](CC[C@@H]3O[C@H]6[C@H]5O4)CC(=O)C[C@@H]3[C@@H](OC)[C@@H](CC(=O)CN4CCOCC4)O[C@H]3C[C@H]3O[C@@H](CC[C@@H]1O2)C[C@@H](C)C3=C
pIC50 [3]: 9.60 | pIC50 [1]: 8.51 | pIC50 (U-251 [4]): 9.06

C=C(C)CN(CC)C[C@H](C[C@H]1O[C@H]2C[C@H]3O[C@@H](CC[C@@H]4O[C@@H](CC[C@@]56C[C@H]7O[C@H]8[C@@H](O5)[C@H]5O[C@H](CC[C@@H]5O[C@H]8[C@H]7O6)CC(=O)C[C@@H]2[C@H]1OC)CC4=C)C[C@@H](C)C3=C)OC
pIC50 [3]: 9.64 | pIC50 [1]: 8.56 | pIC50 (U-251 [4]): 8.43

C#CCN(C)C[C@H](C[C@H]1O[C@H]2C[C@H]3O[C@@H](CC[C@@H]4O[C@@H](CC[C@@]56C[C@H]7O[C@H]8[C@@H](O5)[C@H]5O[C@H](CC[C@@H]5O[C@H]8[C@H]7O6)CC(=O)C[C@@H]2[C@H]1OC)CC4=C)C[C@@H](C)C3=C)OC
pIC50 [3]: 9.74 | pIC50 [1]: 9.02 | pIC50 (U-251 [4]): 9.74 | pIC50 (SF-295 [2]): 9.39
